What was measured:
[1] = system: carmine spider mite (Tetranychus cinnabarinus); experiment: Spray and soil drench test against carmine spider mite on kidney bean (degree of damage); assay type: in vivo; set-up: key: -: Little damage is observed.; +: Slight damage is observed.; ++: Same damage as in the untreated plot is observed; conditions: 500 ppm spray plus soil drench, examined after 8 days
Method: Female adults of carmine spider mite (Tetranychus cinnabarinus) were made parasitic on the leaves of potted kidney bean in a primary leaf stage, at a rate of 10 adults per leaf, which had elapsed seven days after sowing, and stored in a constant-temperature room kept at 25°C. After six days, 15 ml of a dilute solution, previously prepared by diluting the emulsifiable concentrate of the following test compounds obtained according to Formulation example 1 with water so that the active ingredient concentration was 500 ppm, was sprayed thereon by means of a turn table. At the same time, soil drench was carried out with 2 ml of the dilute solution. After 8 days, the degree of damage of each kidney bean by mites was examined.
The degree of damage was classified into three stages, -, + and ++. - : Little damage is observed. + : Slight damage is observed. ++ : Same damage as in the untreated plot is observed.

[2] = Acute oral toxicity in mouse (mortality); conditions: in vivo; oral (stomach sound), 100 mg/kg, ICR mouse, observed for 7 days, 5 head per group; read-out: Mortality (%) at the dose of 100 mg/kg
Method: After fasting of about 24 hours, ICR series mouse was weighed by an electronic balance. A stomack sound for mouse was attached to a syringe filled with test solution, the syringe end was slid to innermost of the mouse's throat to insert it to the stomack, and a definite amount of the test solution was injected. 4 Hours after the administration, a bait and water were given to the mouse for 7 days to observe a mortality (5 head per group).

[3] = system: root-knot nematodes (Meloidogyne sp.); experiment: Soil treatment test against root-knot nematodes on tomato plants (degree of root-knot); assay type: in vivo; set-up: key: -: No settlement; - to +: Not more than 10% as compared with untreated plot; +: 10% - 40% as compared with untreated plot; ++: 40% - 80% as compared with untreated plot; +++: The same as or more than untreated plot; conditions: observed three weeks after planting
Method: The emulsifiable concentrate of each test compound formulated according to Formulation example 1 was diluted with water, and 5 ml of the resulting aqueous dilute liquor was mixed with 600 g of soil contaminated with root-knot nematodes (Meloidogyne sp.) to make the concentration of active ingredient in soil 4 or 1 ppm. The soil was placed in a polyethylene cup of 12 cm in diameter and 8 cm in height, and three tomato plants of 3 to 4 leaf stage were planted.

[4] = system: southern corn rootworm (Diabrotica undecimpunctata howardi BABER); experiment: Soil treatment test against southern corn rootworm larvae (mortality); assay type: in vivo; conditions: 48 h, 1 ppm active ingredient in soil, third instar larvae, two days after liberation
Method: The emulsifiable concentrate of each test compound formulated according to Formulation example 1 was diluted with water, and 5 ml of the resulting aqueous dilute liquor was mixed with 50 g of soil to make the concentration of active ingredient in soil 1 ppm. The soil was then placed in a polyethylene cup of 5.6 cm in diameter and 5.8 cm high, and two pieces of corn having roots of 2 to 3 cm long were planted. At the same time, ten third instar larvae of southern corn rootworm (Diabrotica undecimpunctata howardi BABER) were liberated in the cup. Two days after liberation, the number of the dead and alive larvae was counted to obtain mortality (%).

[5] = concentration in the soil 1 ppm
[6] = concentration in the soil 4 ppm

Row | SMILES | Degree of damage [1] | mortality at 168 h [2] [%] | Extent of settlement [3, 5] | Extent of settlement [3, 6] | mortality at 1 ppm [4] [%]
1 | Cc1cc(Cl)ccc1/N=C/N(C)C [Chlorodimeform] | + |  |  |  | 
2 | CCOP(=O)(Oc1ccccc1)SC(C)CC (stereo not drawn) [(C)] |  | 100 | +++ | - to + (Not more than 10% as compared with untreated plot) | 
3 | CCOP(=O)(Oc1ccccc1)SC(C)(C)C (stereo not drawn) [Present compound, S-tert-butyl O-ethyl O-phenyl phosphorothiolate] | - | 0 | - to + (Not more than 10% as compared with untreated plot) | - | 100
4 | CCOP(=O)(Oc1ccccc1)SC(C)C (stereo not drawn) [(B)] |  | 100 | +++ | + (10% - 40% as compared with untreated plot) | 0
5 | CCCSP(=O)(OCC)Oc1ccccc1 (stereo not drawn) [(A)] |  | 100 |  |  | 70
